Data reported in ChEMBL document CHEMBL2401618 (Eur J Med Chem, 2013).

Tests used:
[1] = Safety index, ratio of IC50 for african green monkey Vero cells to IC50 for chloroquine-resistant Plasmodium falciparum FcB1/Columbia infected in human erythrocytes; format: toxicity, cell-based; conditions: read-out: Ratio IC50
[2] = test system: Leishmania donovani; experiment: Leishmanicidal activity against promastigote stage of Leishmania donovani LV9 assessed as cell viability by MTT assay; format: functional, organism-based
[3] = test system: Plasmodium falciparum; experiment: Antiplasmodial activity against chloroquine-resistant Plasmodium falciparum FcB1/Columbia infected in human erythrocytes assessed as parasite growth inhibition at 10 ug/ml after 24 hrs by [3H]-hypoxanthine incorporation assay relative to control; format: functional; conditions: read-out: GI
[4] = test system: Plasmodium falciparum; experiment: Antiplasmodial activity against chloroquine-resistant Plasmodium falciparum FcB1/Columbia infected in human erythrocytes assessed as parasite growth inhibition at 50 ug/ml after 24 hrs by [3H]-hypoxanthine incorporation assay relative to control; format: functional; conditions: read-out: GI
[5] = test system: Trypanosoma brucei brucei; experiment: Antitrypanosomal activity against bloodstream stage of Trypanosoma brucei brucei 93 assessed as parasite growth inhibition at 1 ug/ml after 72 hrs by resazurin reduction assay relative to control; format: functional; conditions: Trypanosoma brucei, 93, 72 h; read-out: GI
[6] = test system: Trypanosoma brucei brucei; experiment: Antitrypanosomal activity against bloodstream stage of Trypanosoma brucei brucei 93 assessed as parasite growth inhibition after 72 hrs by resazurin reduction assay; format: functional, organism-based; conditions: Trypanosoma brucei, 93, 72 h
[7] = Cytotoxicity against african green monkey Vero cells assessed as growth inhibition at 10^-5 M after 72 hrs by MTS assay relative to control; format: cell-based; conditions: chlorocebus sabaeus, read-out: GI
[8] = test system: Vero; experiment: Cytotoxicity against african green monkey Vero cells assessed as growth inhibition after 72 hrs by MTS assay; format: cell-based; conditions: Chlorocebus sabaeus
[9] = test system: Trypanosoma brucei brucei; experiment: Antitrypanosomal activity against bloodstream stage of Trypanosoma brucei brucei 93 assessed as parasite growth inhibition at 10 ug/ml after 72 hrs by resazurin reduction assay relative to control; format: functional; conditions: Trypanosoma brucei, 93, 72 h; read-out: GI
[10] = test system: Plasmodium falciparum; experiment: Antiplasmodial activity against chloroquine-resistant Plasmodium falciparum FcB1/Columbia infected in human erythrocytes assessed as parasite growth inhibition at 1 ug/ml after 24 hrs by [3H]-hypoxanthine incorporation assay relative to control; format: functional; conditions: read-out: GI
[11] = Safety index, ratio of IC50 for african green monkey Vero cells to IC50 for promastigote stage of Leishmania donovani LV9; format: toxicity, cell-based; conditions: read-out: Ratio IC50
[12] = test system: Trypanosoma brucei brucei; experiment: Antitrypanosomal activity against bloodstream stage of Trypanosoma brucei brucei 93 assessed as parasite growth inhibition at 50 ug/ml after 72 hrs by resazurin reduction assay relative to control; format: functional; conditions: Trypanosoma brucei, 93, 72 h; read-out: GI
[13] = Safety index, ratio of IC50 for african green monkey Vero cells to IC50 for bloodstream stage of Trypanosoma brucei brucei 93; format: toxicity, cell-based; conditions: read-out: Ratio IC50
[14] = test system: Plasmodium falciparum; experiment: Antiplasmodial activity against chloroquine-resistant Plasmodium falciparum FcB1/Columbia infected in human erythrocytes assessed as parasite growth inhibition after 24 hrs by [3H]-hypoxanthine incorporation assay; format: functional, organism-based

## CC(C)=CCC[C@]1(C)[C@@H](CC=C(C)C)C[C@]2(CC=C(C)C)C(=O)[C@@]1(CC=C(C)C)C(=O)C(C(=O)c1ccc(OCCC3OCCO3)c(OCCC3OCCO3)c1)=C2O
[1]
  selectivity ratio: 20.8
[2]
  IC50: 34.3 µM
[3]
  inhibition of growth at 10 µg/mL: 94.1%
[4]
  inhibition of growth at 50 µg/mL: 99.6%
[5]
  inhibition of growth at 1 µg/mL: 44.8%
[6]
  IC50: 1.83 µM
[7]
  inhibition at 72 h, 10 µM: 29%
[8]
  IC50: 41.6 µM
[9]
  inhibition of growth at 10 µg/mL: 96.7%
[10]
  inhibition of growth at 1 µg/mL: 17.6%
[11]
  selectivity ratio: 1.2
[12]
  inhibition of growth at 50 µg/mL: 95%
[13]
  selectivity ratio: 22.8
[14]
  IC50: 2 µM

## CC(=O)Oc1cc(C(=O)C2=C(O)[C@]3(CC=C(C)C)C[C@H](CC=C(C)C)[C@@](C)(CCC=C(C)C)[C@](CC=C(C)C)(C2=O)C3=O)ccc1O
[1]
  selectivity ratio: 0.9
[2]
  IC50: 5.04 µM
[3]
  inhibition of growth at 10 µg/mL: 96.7%
[4]
  inhibition of growth at 50 µg/mL: 99.1%
[5]
  inhibition of growth at 1 µg/mL: 47%
[6]
  IC50: 1.78 µM
[8]
  IC50: 4.12 µM
[9]
  inhibition of growth at 10 µg/mL: 97.3%
[10]
  inhibition of growth at 1 µg/mL: 9%
[11]
  selectivity ratio: 0.8
[12]
  inhibition of growth at 50 µg/mL: 95.5%
[13]
  selectivity ratio: 2.3
[14]
  IC50: 4.36 µM

## CC(C)=CCC[C@]1(C)[C@@H](CC=C(C)C)C[C@]2(CC=C(C)C)C(=O)[C@@]1(CC=C(C)C)C(=O)C(C(=O)c1ccc(OC(=O)C(C)(C)C)c(OC(=O)C(C)(C)C)c1)=C2O
[2]
  IC50: > 100 µM
[3]
  inhibition of growth at 10 µg/mL: 27.2%
[4]
  inhibition of growth at 50 µg/mL: 0.5%
[5]
  inhibition of growth at 1 µg/mL: 42.9%
[6]
  IC50: 8.66 µM
[7]
  inhibition at 72 h, 10 µM: 13%
[8]
  IC50: 100 µM
[9]
  inhibition of growth at 10 µg/mL: 91.2%
[10]
  inhibition of growth at 1 µg/mL: 4.48%
[11]
  selectivity ratio: < 1
[12]
  inhibition of growth at 50 µg/mL: 96.4%
[13]
  selectivity ratio: 11.5
